In US7355063B2, “Shogaol compound and tyrosinase activity inhibitor comprising the compound” (Toagosei Co., Ltd., priority 2003, dated 2008):

Experiments:
mushroom tyrosinase [1] = test: Tyrosinase activity inhibition test using L-dopa as substrate (Test Examples 3 to 6, microplate reader, 490 nm); type: biochemical
Procedure: (§1) Using the compound 37 obtained in Example 21, the compound 38 obtained in Example 22, the compound 39 obtained in Example 23, and arbutin (manufactured by Tokyo Kasei Kogyo Co., Ltd.) as a comparative control, a tyrosinase activity inhibition test was carried out using L-dopa as a substrate.
The specific test procedures are as follows. • (1) 72 μl of a phosphate buffer prepared by dissolving 1.000 g of sodium dihydrogen phosphate and 1.186 g of disodium hydrogen phosphate in 500 ml of distilled water, 80 μl of a substrate solution prepared by dissolving 32.7 mg of L-DOPA in 200 ml of distilled water, and 8 μl of a test solution prepared by dissolving the test compound in dimethyl sulfoxide were mixed together. • (2) 80 μl of an enzyme solution prepared by dissolving 3.0 mg (2400 units; manufactured by Sigma Corporation) of mushroom tyrosinase in 7.0 ml of distilled water and diluting the solution with the above phosphate buffer so as to make it five times in amount was added to the solution prepared in (1), and the whole was stirred for 15 seconds. The resulting solution was maintained at 25° C., and the absorbance at 490 nm was measured by a microplate reader one minute and 45 seconds later and 2 minutes and 45 seconds later. • (3) The test operations in the above (1) and (2) were conducted four times for the individual test compounds and blank test (only dimethyl sulfoxide), and the resulting numeric value was inserted in the following calculation formula and a mean value thereof was regarded as a tyrosinase activity inhibition ratio (%). Tyrosinase activity inhibition ratio (%)=[(T^1−T^2)/T^1]×100 • T^1=difference in absorbance of solution with addition of no test compound between 2 minutes and 45 seconds later and one minute and 45 seconds later • T^2=difference in absorbance of solution with addition of test compound was added between 2 minutes and 45 seconds later and one minute and 45 seconds later
(§2) Using the compound 42 obtained in Example 26, the compound 45 obtained in Example 29, the compound 46 obtained in Example 30, and arbutin (manufactured by Tokyo Kasei Kogyo Co., Ltd.) as a comparative control, a tyrosinase activity inhibition test was carried out using L-dopa as a substrate. The test procedure was in accordance with Test Example 3.
as §2, with “34” for “42”, “18,” for “26,”, “47” for “45”, “31,” for “29, the compound 46 obtained in Example 30,”
Using the compound 48 obtained in Example 32 and arbutin (manufactured by Tokyo Kasei Kogyo Co., Ltd.) as a comparative control, a tyrosinase activity inhibition test was carried out using L-dopa as a substrate. The test procedure was in accordance with Test Example 3.

[2] = Test of scavenging DPPH radical (Test Example 9, microplate reader, 540 nm); conditions: final concentration of 25 μg/mL; 20 minutes, room temperature
Description: Using the compound 36 obtained in Example 20, the compound 37 obtained in Example 21, the compound 38 obtained in Example 22, the compound 39 obtained in Example 23, the compound 40 obtained in Example 24, the compound 42 obtained in Example 26, the compound 45 obtained in Example 29, the compound 46 obtained in Example 30, the compound 48 obtained in Example 32 and, as a comparative control, dl-α-tocopherol (manufactured by Tokyo Kasei Kogyo Co., Ltd.), a test of scavenging DDPH (1,1-diphenyl-2-picrylhydrazyl) radical, a stable radical, was carried out.
100 μl of 800 μM DPPH ethanol solution was added to 80 μl of 100 mM Tris-HCl buffer (pH 7.4) and 20 μl of an ethanol solution of the compound 36 (final concentration of 25 μg/mL), followed by sufficient stirring. After the resulting mixture was allowed to stand in a dark place at room temperature for 20 minutes, the absorbance at 540 nm was measured on a microplate reader (absorbance of the test solution).
The compounds 37, 38, 39, 40, 42, 45, 46, and 48 of the invention as well as dl-α-tocopherol as a known radical scavenger were similarly tested.
As a control, using 80 μl of 100 mM Tris-HCl buffer (pH 7.4), 20 μl of ethanol, and 100 μl of 800 μM DPPH ethanol solution, the same operation was carried out as described above and the absorbance was measured (absorbance of the control solution).
With the individual compounds, the same measurement was repeated four times, and the mean value was inserted in the following formula to calculate a DPPH radical-scavenging ratio. DPPH radical-scavenging ratio (%)=[1−(absorbance of sample solution/absorbance of control solution)]×100

[3] = biological target: T1, hyaluronic acid-degrading enzyme (derived from bovine testicles, Type IV-S) (Bos taurus, UniProt Q2YDK3); test: Hyaluronic acid-degrading enzyme activity inhibition test; type: biochemical
T1 construct: derived from bovine testicles manufactured by Sigma Corporation, Type IV-S; purchased Sigma Corporation Type IV-S; host or cells: bovine testicles
T1 sequence (Q2YDK3 36-553): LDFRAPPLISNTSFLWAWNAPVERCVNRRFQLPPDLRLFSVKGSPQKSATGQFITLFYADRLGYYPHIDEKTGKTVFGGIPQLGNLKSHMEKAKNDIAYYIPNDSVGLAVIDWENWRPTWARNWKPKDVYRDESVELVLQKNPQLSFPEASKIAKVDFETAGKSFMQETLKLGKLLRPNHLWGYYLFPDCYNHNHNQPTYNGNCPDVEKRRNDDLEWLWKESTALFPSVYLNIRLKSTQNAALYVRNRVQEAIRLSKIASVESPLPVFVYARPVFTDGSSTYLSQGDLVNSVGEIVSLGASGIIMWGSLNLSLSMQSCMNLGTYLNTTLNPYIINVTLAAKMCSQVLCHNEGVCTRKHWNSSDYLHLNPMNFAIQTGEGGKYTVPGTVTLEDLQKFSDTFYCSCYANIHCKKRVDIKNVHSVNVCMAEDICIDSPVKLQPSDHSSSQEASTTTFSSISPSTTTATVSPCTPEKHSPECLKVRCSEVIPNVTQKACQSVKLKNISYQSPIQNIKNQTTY
Procedure: Using the compound 7 obtained in Example 2, the compound 34, and magnesium ascorbate phosphate as a comparative control, a hyaluronic acid-degrading enzyme activity inhibition test was carried out.
First, the following solutions shown in A to H were each prepared. • A: 0.1M acetate buffer solution was prepared by dissolving 0.60 g of acetic acid in 100 ml of distilled water. • B: A hyaluronidase solution was prepared by dissolving 7.2 mg of a hyaluronic acid-degrading enzyme (derived from bovine testicles manufactured by Sigma Corporation, Type IV-S) into 3.0 ml of the acetate buffer (prepared in the above A). • C: An activator solution was prepared by dissolving 1.0 mg of compound 48/80 (a hyaluronidase activator manufactured by Sigma Corporation) into 10.0 ml of the acetate buffer (prepared in the above A). • D: A hyaluronic acid solution was prepared by dissolving 12.0 mg of potassium hyaluronate (manufactured by Wako Pure Chemical Industries, Ltd.) into 15.0 ml of the acetate buffer (prepared in the above A). • E: A 0.4N sodium hydroxide aqueous solution was prepared by dissolving 1.60 g of sodium hydroxide into 100 ml of distilled water. • F: After 4.95 g of boric acid was dissolved into 50 ml of distilled water, a 1N sodium hydroxide aqueous solution was added until pH reached 9.1. Subsequently, the whole amount was made 100 ml by adding distilled water. • G: 1.0 g of p-dimethylaminobenzaldehyde, 1.25 ml of 10N hydrochloric acid, and 8.75 ml of acetic acid were mixed. The solution was used after the whole amount was made 100 ml by adding acetic acid immediately before use. • H: Each test compound was dissolved in the acetate buffer (prepared in the above A) so the final test concentration became 0.5 mg/ml and 1.0 mg/ml.
Next, the experimental operation was carried out with the procedures shown in the following (1) to (8).
(1) 0.2 ml of the test compound solution (prepared in the above H) and 0.1 ml of the hyaluronic acid-degrading enzyme solution (prepared in the B) were mixed and the whole was incubated at 37° C. for 20 minutes.
(2) To the above reaction solution was added 0.2 ml of the activator solution (prepared in the above C) and the whole was incubated at 37° C. for 20 minutes.
(3) To the above reaction solution was added 0.5 ml of the hyaluronic acid solution (prepared in the above D), and the whole was incubated at 37° C. for 40 minutes.
(4) To the above reaction solution was added 0.2 ml of the 0.4N sodium hydroxide aqueous solution (prepared in the above E), and the whole was cooled in an ice bath.
(5) To the above reaction solution was added 0.2 ml of the boric acid solution (prepared in the above F), and the whole was heated at 100° C. for 3 minutes.
(6) The above reaction solution was cooled in an ice bath.
(7) To the above reaction solution was added 3.0 ml of the p-dimethylaminobenzaldehyde solution (prepared in the above G), and the whole was incubated at 37° C. for 20 minutes.
(8) Absorbance of the reaction solution at 585 nm was measured using a spectrophotometer.
The above experimental operations were repeated three times, and the resulting numeric value was inserted in the following calculation formula and a mean value thereof was regarded as a hyaluronic acid-degrading enzyme activity inhibition ratio (%). Hyaluronic acid-degrading enzyme activity inhibition ratio (%)=(A−B)/A×100
A=absorbance obtained at the time when operation was carried out with addition of no test compound
B=absorbance obtained at the time when operation was carried out with addition of test compound
The compounds of the invention and magnesium ascorbate phosphate were each used in an enzymatic reaction solution in amounts of 0.1 mg/ml, 0.2 mg/ml, and 0.4 mg/ml, and the results were shown in Table 7 (since the compound 7 was not dissolved in a concentration of 0.4 mg/ml, the test was not carried out).

mushroom tyrosinase [4] = test: Tyrosinase activity inhibition test using L-dopa as substrate (Test Examples 1 and 2, absorbance at 475 nm); type: biochemical
Procedure: as §1, with “7” for “37”, “2,” for “21,”, “13” for “38”, “5, a mixture of” for “22,”, “18 and the compound 19 (existing molar ratio 45:55)” for “39”, “7,” for “23,”
The specific test procedures are as follows. • (1) 1.80 ml of a phosphate buffer prepared by dissolving 1.000 g of sodium dihydrogen phosphate and 1.186 g of disodium hydrogen phosphate in 500 ml of distilled water, 1.00 ml of a substrate solution prepared by dissolving 32.7 mg of L-DOPA in 200 ml of distilled water, and 0.10 ml of a test solution prepared by dissolving the test compound in dimethyl sulfoxide were mixed together. • (2) 0.10 ml of an enzyme solution prepared by dissolving 3.0 mg (2400 units; manufactured by Sigma Corporation) of mushroom tyrosinase in 7.0 ml of distilled water was added to the solution prepared in (1), and the whole was stirred for 15 seconds. The resulting solution was maintained at 25° C., and the absorbance at 475 nm was measured one minute and 45 seconds later and 2 minutes and 45 seconds later. • (3) The test operations in the above (1) and (2) were conducted three times for the individual test compounds and blank test (only dimethyl sulfoxide), and the resulting numeric value was inserted in the following calculation formula and a mean value thereof was regarded as a tyrosinase activity inhibition ratio (%). Tyrosinase activity inhibition ratio (%)=[(T^1−T^2)/T^1]×100 • T^1=difference in absorbance of solution with addition of no test compound between 2 minutes and 45 seconds later and one minute and 45 seconds later • T^2=difference in absorbance of solution with addition of test compound was added between 2 minutes and 45 seconds later and one minute and 45 seconds later
Using the compound 40 obtained in Example 24 and arbutin (manufactured by Tokyo Kasei Kogyo Co., Ltd.) as a comparative control, a tyrosinase activity inhibition test was carried out using L-dopa as a substrate. The test procedure was in accordance with Test Example 1.

COc1cc(CCC(O)CCCCCCCCC(=O)O)ccc1O (stereo not shown) [Compound 39]
Tyrosinase activity inhibition ratio (%) (mushroom tyrosinase [1]; 0.5 mg/mL, Table 3): 51.3%
Tyrosinase activity inhibition ratio (%) (mushroom tyrosinase [1]; 1 mg/mL, Table 3): 75.2%
DPPH radical-scavenging ratio (%) [2]: 33.8%

COc1cc(CCC(=O)CCCCCCCCCO)ccc1O [Compound 46]
Tyrosinase activity inhibition ratio (%) (mushroom tyrosinase [1]; 0.031 mg/mL, Table 4): 14.9%
Tyrosinase activity inhibition ratio (%) (mushroom tyrosinase [1]; 0.063 mg/mL, Table 4): 23.8%
Tyrosinase activity inhibition ratio (%) (mushroom tyrosinase [1]; 0.125 mg/mL, Table 4): 36.9%
DPPH radical-scavenging ratio (%) [2]: 39.4%

magnesium ascorbate phosphate [reference compound]
Hyaluronic acid-degrading enzyme activity inhibition ratio (%) ([3]; 0.1 mg/mL): 3.3%
Hyaluronic acid-degrading enzyme activity inhibition ratio (%) ([3]; 0.2 mg/mL): 4.2%
Hyaluronic acid-degrading enzyme activity inhibition ratio (%) ([3]; 0.4 mg/mL): 7.6%

COc1cc(CCC(O)/C=C/CCCCCCC(=O)O)ccc1O (stereo not shown) [Compound 37]
Tyrosinase activity inhibition ratio (%) (mushroom tyrosinase [1]; 0.5 mg/mL, Table 3): 48.6%
Tyrosinase activity inhibition ratio (%) (mushroom tyrosinase [1]; 1 mg/mL, Table 3): 67.7%
DPPH radical-scavenging ratio (%) [2]: 37.6%

COC(=O)CCCCCCC(CC(=O)CCc1ccc(O)c(OC)c1)OC (stereo not shown) [Compound 36]
DPPH radical-scavenging ratio (%) [2]: 31.7%

OC[C@H]1O[C@@H](Oc2ccc(O)cc2)[C@H](O)[C@@H](O)[C@@H]1O [Arbutin, arbutin, reference compound]
Tyrosinase activity inhibition ratio (%) (mushroom tyrosinase [1]; 0.031 mg/mL, Table 4): 10.7%
Tyrosinase activity inhibition ratio (%) (mushroom tyrosinase [1]; 0.063 mg/mL, Table 4): 17.7%
Tyrosinase activity inhibition ratio (%) (mushroom tyrosinase [1]; 0.125 mg/mL, Table 4): 24.7%
Tyrosinase activity inhibition ratio (%) (mushroom tyrosinase [1]; 0.25 mg/mL, Table 6, 0.50 mg/mL): 35.8%
Tyrosinase activity inhibition ratio (%) (mushroom tyrosinase [1]; 0.5 mg/mL, Table 3): 35.0%
Tyrosinase activity inhibition ratio (%) (mushroom tyrosinase [1]; 0.5 mg/mL, Table 6, 0.50 mg/mL): 42.6%
Tyrosinase activity inhibition ratio (%) (mushroom tyrosinase [1]; 1 mg/mL, Table 3): 41.6%
Tyrosinase activity inhibition ratio (%) (mushroom tyrosinase [1]; 1.00 mg/ml, Table 5): 45.6%
Tyrosinase activity inhibition ratio (%) (mushroom tyrosinase [4]; 0.125 mg/mL, Table 2): 23.1%
Tyrosinase activity inhibition ratio (%) (mushroom tyrosinase [4]; 0.25 mg/mL, Table 2): 28.5%
Tyrosinase activity inhibition ratio (%) (mushroom tyrosinase [4]; 0.5 mg/mL in enzymatic reaction solution, Table 1): 36.2%
Tyrosinase activity inhibition ratio (%) (mushroom tyrosinase [4]; 0.5 mg/mL, Table 2): 34.6%
Tyrosinase activity inhibition ratio (%) (mushroom tyrosinase [4]; 1 mg/mL in enzymatic reaction solution, Table 1): 42.2%

COc1cc(CCC(=O)CC(O)CCCCCCC(=O)O)ccc1O (stereo not shown) [Compound 34]
Tyrosinase activity inhibition ratio (%) (mushroom tyrosinase [1]; 1.00 mg/ml, Table 5): 60.1%
Hyaluronic acid-degrading enzyme activity inhibition ratio (%) ([3]; 0.1 mg/mL): 12.1%
Hyaluronic acid-degrading enzyme activity inhibition ratio (%) ([3]; 0.2 mg/mL): 31.6%
Hyaluronic acid-degrading enzyme activity inhibition ratio (%) ([3]; 0.4 mg/mL): 81.3%
